In patent US12723233B2, “Media and methods for differentiating natural killer cells” (STEMCELL Technologies Canada Inc., priority 2018, dated 2026):
Entries after “also recorded” stand apart in the source; their conditions may differ.

How the values were obtained:
[1] = tested on: NK cell progenitors; test: Differentiation of cord blood CD34+-derived NK cell progenitors to CD56+ NK cells (culture days 14-28), flow cytometry and cell counts; type: cell-based, Human
Description: Human CB samples were obtained from Bloodworks NW (Seattle, WA) and CD34^+ cells were isolated using EasySep™ Human Cord Blood CD34 Positive Selection Kit II (STEMCELL Technologies, Catalogue #17896). Obtained in this way the purity of CD34^+ cells is typically higher than 90%.
The wells of a 24-well plate were coated with StemSpan™ Lymphoid Differentiation Coating Supplement (STEMCELL Technologies, Catalogue #09925) and 5000 CD34^+ cells were plated per well. The CD34^+ cells were cultured for up to 14 days in StemSpan™ SFEM II (STEMCELL Technologies, Catalogue #09605, 09655) supplemented with Lymphoid Progenitor Expansion Supplement (STEMCELL Technologies, Catalogue #09915) with media changes every 3-4 days.
After 14 days in culture, CD34^+ cell-derived NK cell progenitors were harvested. 50,000 NK cell progenitors were plated per well of an uncoated tissue culture 24-well plate. The plated NK cell progenitors were cultured for up to two weeks in NK Cell Differentiation medium (i.e StemSpan™ SFEM II (STEMCELL Technologies, Catalog # 09605, 09655) supplemented with NK Cell Differentiation Supplement (STEMCELL Technologies, Catalogue #09950), and cultured for an additional two weeks with media changes every 3-4 days. UM729 or UM171 was added to supplemented NK Cell Differentiation Medium on days 14-28. On day 28 cells were harvested for analysis or downstream applications.
Harvested cells were stained and measured by flow cytometry for expression of the NK cell lineage marker CD56. Dead cells were excluded by light scatter profile and 7-AAD or DRAQ7 staining. The results in FIGS. 1 and 2 at condition “0” (plotted on the x-axis) indicate the frequency and yield of CD56^+ NK cells that result from experiments that follows the protocol described above but in the absence of UM171 or UM729. Cell counts were obtained using the NucleoCounter NC250. Yield was calculated by dividing the resulting cell number by the number of cells initially seeded. Yields of specific cell types were obtained by multiplying total yield by cell frequency.
Cells were cultured as described in Example 1, with the exception that the up to two week culture of NK cell progenitors (i.e. culture days 14-28) in NK Cell Differentiation medium occurred in the presence or absence of UM171 or UM729.
The effects of UM171 and UM729 were tested across a range of concentrations: 0 nM, 50 nM, 100 nM, 150 nM and 200 nM for UM171; and 0 μM, 0.25 μM, 0.5 μM, 1 μM, and 2 μM for UM729.
CD34^+ CB cells were isolated and cultured as described in Example 1 up to the day 14 time point. Day 14 NK cell progenitors were further cultured in NK Cell Differentiation medium, essentially as described in Example 1, except in the absence of an added pyrimidoindole compound but in the presence or absence of 5 μM CH223191.

[2] = tested on: differentiated CD56+ NK cells; test: Flow cytometry of NK cell, maturity and T cell markers on differentiated CD56+ NK cells at day 28; type: cell-based, Human; conditions: 100 nM UM171, day 28
Description: CD56^+ NK cells were differentiated as described in Examples 1 and 2 in the presence of 1 μM UM729 and analyzed on day 28 by flow cytometry for the expression of known NK cell markers. Cells were stained with fluorescence-conjugated antibodies against indicated NK cell markers for 15 min at 4° C. Non-specific binding was blocked using FcR blocker and 5% human or rat serum. Dead cells were excluded by light scatter profile and 7-AAD or DRAQ7 staining. Prepared samples were analyzed by flow cytometry.
CD56^+ NK cells were differentiated as described in Examples 1 and 2 in the presence of 1 μM UM729 and analyzed on day 28 by flow cytometry for the expression of known NK cell markers. The cells were stained for the markers described in this Example essentially as described in Example 3. Staining for KIR molecules was performed using a combination of two clones for the antibody, 180704 and HP-MA4, as each recognizes a distinct subset of KIR molecules. Dead cells were excluded by light scatter profile and 7-AAD or DRAQ7 staining.
Production of IFNγ by the differentiated CD56^+ NK cells was also measured. For IFNγ intracellular staining, differentiated CD56^+ NK Cells were stimulated with PMA/Ionomycin for 2 hours. Brefeldin A was added and the cells were incubated for another 2 hours. The cells were harvested and stained for CD56 and Zombie NIR viability dye then fixed, permeabilized and stained for intracellular IFNγ.
CD56^+ NK cells were differentiated as described in Examples 1 and 2 in the presence of pyrimidoindole compounds and analyzed on day 28 by flow cytometry for the expression of a T cell marker. The analyzed cells were stained for CD3 essentially as described in Example 3. Dead cells were excluded by light scatter profile and 7-AAD or DRAQ7 staining.

[3] = tested on: Cord blood-derived CD34+ HSPC cells; test: UM171 added at different times of the day 0-28 NK differentiation culture, CD56 expression at day 28; type: cell-based, Human; conditions: analyzed at day 28
Description: (§1) […] CB cells were isolated and cultured as described in Example 1. As in Example 1 and 2 the different media were used in the day 0-14 and the day 14-28 cultures, except the day 0-14 culture medium was further supplemented with 100 nM UM171 to investigate its effect on the differentiation of CD4^+ HSPC to NK cells.
(§2) In these experiments UM171 was added to the cultures at different time points: days 0-14 (+/−); days 14-28 (−/+); or days 0-28 (+/+). Cultures without UM171 were also set up (−/−). Cells were either analyzed at day 28 for CD56 expression (FIG. 8) or at day 14 for CD7 and CD5 expression (FIG. 9).

[4] = tested on: CD34+ HSPC; test: Differentiation of CD34+ HSPC into CD7+CD5+ NK cell progenitors (days 0-14), CD7 and CD5 expression at day 14; type: cell-based, Human; conditions: day 0-14 culture medium supplemented with 100 nM UM171, day 14
Description: as §1, §2

[5] = reported; cited from earlier work
[6] = 5 μM CH223191, no added pyrimidoindole compound, day 14 NK cell progenitors
[7] = 100 nM UM171, normalized to STD cultures, n=15
[8] = tested 0, 50, 100, 150, 200 nM, days 14-28
[9] = 100 nM UM171 between days 0-14 (+/−)
[10] = 100 nM UM171 between days 14-28 (−/+)

In the case of `Cc1ccccc1N=Nc1ccc(NC(=O)c2ccnn2C)c(C)c1` [CH223191], the “CD56+ NK cell frequency compared to absence of CH223191” value [1, 6] is reported as “decreased” and the “CD56+ NK cell yield compared to absence of CH223191” value [1, 6] is reported as “decreased”.
With `Cn1nnc(-c2ccc3c(c2)[nH]c2nc(Cc4ccccc4)nc(N[C@H]4CC[C@H](N)CC4)c23)n1` [UM171, (1r,4r)-N^1-(2-benzyl-7-(2-methyl-2H-tetrazol-5-yl)-9H-pyrimido[4,5-13]indol-4-yl)cyclohexane-1,4-diamine] the “Expression of CD3 among differentiated cells” value ([2]; cord blood sample of a first donor) was “virtually absent; also recorded: do not express CD3”, the “Expression of CD3 among differentiated cells” value ([2]; cord blood sample of a second donor) was “virtually absent; also recorded: do not express CD3” and the “Frequency of CD56+ NK cells compared to cultures lacking UM171” value ([1]; 100 nM UM171, 14 days culture of NK cell progenitors, paired t-test p=0.013) was “increased significantly”. For the same molecule, the “Increase of average frequency of NK cells compared to culture conditions not including a pyrimidoindole compound” value [1, 7] was ~ 30%, the “Increase of average yield of NK cells compared to culture conditions not including a pyrimidoindole compound” value [1, 7] was 2 fold and the “Concentration at which frequency of CD56+ NK cells appeared to be highest” value [1, 8] was 100 nM. The “Concentration at which yield of CD56+ NK cells appeared to be highest” value [1, 8] was 100 nM, the “CD56+ cell frequency compared to cultures lacking UM171 on days 0-14 (−/−)” value [3, 9] was “lower” and the “CD56+ cell yield compared to cultures lacking UM171 on days 0-14 (−/−)” value [3, 9] was “lower”. The “NK cell frequency compared to cultures lacking UM171 (−/−)” value [3, 10] was “increase”, the “NK cell yield compared to cultures lacking UM171 (−/−)” value [3, 10] was “increase” and the “Effect of inclusion of UM171 during days 14-28 on CD56+ NK cell frequency and yield in the (+/+) condition” value ([3]; 100 nM UM171 days 0-28 (+/+)) was “can compensate for the effects of this compound on day 0-14 cultures”. The “Frequency of CD7+CD5+ NK cell progenitors compared to cultures not supplemented with UM171” value [4] was “clear reduction”, the “Yield of CD7+CD5+ NK cell progenitors compared to cultures not supplemented with UM171” value [4] was “clear reduction” and the “Potency relative to UM729” value [5] was “approximately 10 ×”.
